According to patent US11666578B2, “Small molecule inhibitors of CDK12/CDK13” (The Scripps Research Institute, priority 2018, dated 2023):
pIC50, pKd: −log10 of the molar value. Values after ≈ are worked out from the molar mass of the structure shown. Values joined by “and” are separate entries in the source; they are usually repeats but may differ in a detail not shown here. Equal entries are not always repeated. Where two headings read alike, the source gives them in different places.

Key:
U87 cell line = assay: Cell proliferation / growth inhibition, U87, 72 h (Cell-Titer Glo); assay type: cell-based; conditions: Homo sapiens, U-87 MG
CYP 1A2 = molecular target: T1, CYP 1A2 (Homo sapiens, UniProt P05177); assay: Cytochrome P450 inhibition assay, 1A2; assay type: in vitro ADME
T1 sequence (P05177 1-516): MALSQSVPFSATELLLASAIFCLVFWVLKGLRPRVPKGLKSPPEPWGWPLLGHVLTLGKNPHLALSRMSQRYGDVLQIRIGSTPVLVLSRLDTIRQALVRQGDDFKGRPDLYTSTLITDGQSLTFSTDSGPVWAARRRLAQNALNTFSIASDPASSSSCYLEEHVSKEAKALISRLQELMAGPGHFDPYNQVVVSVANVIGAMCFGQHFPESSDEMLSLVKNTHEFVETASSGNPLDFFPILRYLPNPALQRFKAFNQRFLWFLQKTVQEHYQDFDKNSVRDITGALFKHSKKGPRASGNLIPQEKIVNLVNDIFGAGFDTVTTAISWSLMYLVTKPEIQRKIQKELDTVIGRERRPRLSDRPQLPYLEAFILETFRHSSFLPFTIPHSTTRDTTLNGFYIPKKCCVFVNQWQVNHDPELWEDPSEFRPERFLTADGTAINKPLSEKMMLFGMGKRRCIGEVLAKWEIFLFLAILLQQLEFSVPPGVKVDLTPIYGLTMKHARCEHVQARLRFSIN

MDA-MB-231 cell line = assay: Cell proliferation / growth inhibition, MDA-MB-231, 72 h (Cell-Titer Glo); assay type: cell-based; conditions: Homo sapiens
[1] = Solubility in pH 7.4 phosphate buffered saline; assay type: physicochemical; conditions: aqueous buffer
CYP 2C9 = CYP 2C9 (Homo sapiens, UniProt P11712); assay: Cytochrome P450 inhibition assay, 2C9; assay type: in vitro ADME
CYP 2C9, sequence (P11712 whole entry): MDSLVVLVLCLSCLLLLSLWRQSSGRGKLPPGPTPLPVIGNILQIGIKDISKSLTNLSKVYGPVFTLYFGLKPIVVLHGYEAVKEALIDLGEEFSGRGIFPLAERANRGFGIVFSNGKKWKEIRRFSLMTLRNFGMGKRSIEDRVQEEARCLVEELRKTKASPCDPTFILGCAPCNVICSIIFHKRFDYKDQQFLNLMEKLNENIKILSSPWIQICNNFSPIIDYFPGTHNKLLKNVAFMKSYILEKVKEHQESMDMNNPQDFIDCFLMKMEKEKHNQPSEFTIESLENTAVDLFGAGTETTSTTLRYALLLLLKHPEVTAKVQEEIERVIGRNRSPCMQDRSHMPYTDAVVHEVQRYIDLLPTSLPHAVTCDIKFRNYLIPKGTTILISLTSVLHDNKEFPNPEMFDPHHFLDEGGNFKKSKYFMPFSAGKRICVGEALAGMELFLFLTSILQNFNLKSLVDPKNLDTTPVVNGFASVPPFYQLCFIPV

CYP 3A4 = CYP 3A4 (Homo sapiens, UniProt P08684); assay: Cytochrome P450 inhibition assay, 3A4; assay type: in vitro ADME
CYP 3A4, sequence (P08684 whole entry): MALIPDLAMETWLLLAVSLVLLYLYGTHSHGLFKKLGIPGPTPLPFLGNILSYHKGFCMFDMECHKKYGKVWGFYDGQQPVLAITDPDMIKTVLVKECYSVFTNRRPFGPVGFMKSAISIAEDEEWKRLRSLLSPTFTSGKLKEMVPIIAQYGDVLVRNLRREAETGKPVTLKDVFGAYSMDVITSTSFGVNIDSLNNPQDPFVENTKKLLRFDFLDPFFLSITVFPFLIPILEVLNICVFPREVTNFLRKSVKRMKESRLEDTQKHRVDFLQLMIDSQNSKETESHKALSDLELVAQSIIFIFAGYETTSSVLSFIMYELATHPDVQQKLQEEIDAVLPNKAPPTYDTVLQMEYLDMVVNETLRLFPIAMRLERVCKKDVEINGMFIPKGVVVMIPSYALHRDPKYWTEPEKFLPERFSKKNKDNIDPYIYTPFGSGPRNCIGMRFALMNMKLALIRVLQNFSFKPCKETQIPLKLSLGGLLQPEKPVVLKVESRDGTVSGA

CYP 2D6 = CYP 2D6 (Homo sapiens, UniProt P10635); assay: Cytochrome P450 inhibition assay, 2D6; assay type: in vitro ADME
CYP 2D6, sequence (P10635 whole entry): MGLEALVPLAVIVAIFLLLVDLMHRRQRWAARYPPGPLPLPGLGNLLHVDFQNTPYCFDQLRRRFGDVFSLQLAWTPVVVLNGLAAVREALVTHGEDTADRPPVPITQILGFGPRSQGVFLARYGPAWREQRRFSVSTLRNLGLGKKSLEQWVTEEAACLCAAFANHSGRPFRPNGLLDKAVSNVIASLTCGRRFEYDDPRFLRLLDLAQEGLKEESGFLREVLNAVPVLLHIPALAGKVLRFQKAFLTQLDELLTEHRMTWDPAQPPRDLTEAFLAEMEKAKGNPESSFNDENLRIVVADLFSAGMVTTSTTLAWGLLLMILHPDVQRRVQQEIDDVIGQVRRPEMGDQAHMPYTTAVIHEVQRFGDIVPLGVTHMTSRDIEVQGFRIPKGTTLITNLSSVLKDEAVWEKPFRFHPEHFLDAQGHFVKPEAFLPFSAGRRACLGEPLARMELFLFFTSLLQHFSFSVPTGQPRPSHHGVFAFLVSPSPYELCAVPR

[2] = Microsome stability, rat liver microsomes; assay type: in vitro ADME; conditions: read-out: Microsome stability t1/2 (R)
[3] = Microsome stability, human liver microsomes; assay type: in vitro ADME; conditions: read-out: Microsome stability t1/2 (H)
[4] = Microsome stability, mouse liver microsomes; assay type: in vitro ADME; conditions: read-out: Microsome stability t1/2
other CDKs (CDK panel) = assay: Selectivity in CDK panel (% of inhibition at 10 μM); assay type: biochemical; conditions: FIG. 2
Procedure: FIGS. 2a and 2b. Selectivity of selected CDK12/13 inhibitors against other CDKs (% of inhibition at 10 μM)

CK1δ = CK1δ (Homo sapiens, UniProt P48730); assay: In-house kinase inhibition assay, CK1δ; assay type: biochemical
CK1δ, sequence (P48730 whole entry): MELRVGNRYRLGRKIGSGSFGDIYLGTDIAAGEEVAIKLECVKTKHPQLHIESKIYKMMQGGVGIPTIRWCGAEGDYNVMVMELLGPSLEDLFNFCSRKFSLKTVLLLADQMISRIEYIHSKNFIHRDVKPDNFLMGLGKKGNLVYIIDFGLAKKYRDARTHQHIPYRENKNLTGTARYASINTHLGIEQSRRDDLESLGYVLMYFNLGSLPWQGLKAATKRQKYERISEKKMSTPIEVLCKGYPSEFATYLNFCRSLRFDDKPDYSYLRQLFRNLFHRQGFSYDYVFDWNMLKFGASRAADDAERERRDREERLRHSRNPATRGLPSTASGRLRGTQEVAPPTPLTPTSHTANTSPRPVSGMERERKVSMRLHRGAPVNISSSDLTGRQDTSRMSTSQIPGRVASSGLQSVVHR
From the text: (§1) [drawing 21] wherein the substituents W, X, Y, Z, and R^1, are as specified in the respective Table columns.

CK1ε = CK1ε (Homo sapiens, UniProt P49674); assay: In-house kinase inhibition assay, CK1ε; assay type: biochemical
CK1ε, sequence (P49674 whole entry): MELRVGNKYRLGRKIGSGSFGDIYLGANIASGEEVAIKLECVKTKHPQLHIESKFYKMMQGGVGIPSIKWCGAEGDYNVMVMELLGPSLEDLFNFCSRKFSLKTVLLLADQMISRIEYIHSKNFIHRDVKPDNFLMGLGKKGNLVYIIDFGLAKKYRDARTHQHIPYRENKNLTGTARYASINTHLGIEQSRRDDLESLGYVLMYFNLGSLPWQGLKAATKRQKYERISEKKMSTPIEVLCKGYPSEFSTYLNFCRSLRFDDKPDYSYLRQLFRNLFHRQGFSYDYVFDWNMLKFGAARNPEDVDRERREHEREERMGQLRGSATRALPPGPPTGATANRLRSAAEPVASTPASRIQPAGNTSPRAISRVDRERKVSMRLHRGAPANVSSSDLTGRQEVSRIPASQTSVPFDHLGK
From the text: as §1

Mouse PK = assay type: in vivo; conditions: for AUC: read-out: AUCINF_dos (converted)
CDK12 = molecular target: T2, CDK12 (Homo sapiens, UniProt Q9NYV4); assay: Competition binding assay, DiscoverX (Kinomescan), CDK12
T2 construct: purchased DiscoverX
T2 sequence (Q9NYV4 whole entry): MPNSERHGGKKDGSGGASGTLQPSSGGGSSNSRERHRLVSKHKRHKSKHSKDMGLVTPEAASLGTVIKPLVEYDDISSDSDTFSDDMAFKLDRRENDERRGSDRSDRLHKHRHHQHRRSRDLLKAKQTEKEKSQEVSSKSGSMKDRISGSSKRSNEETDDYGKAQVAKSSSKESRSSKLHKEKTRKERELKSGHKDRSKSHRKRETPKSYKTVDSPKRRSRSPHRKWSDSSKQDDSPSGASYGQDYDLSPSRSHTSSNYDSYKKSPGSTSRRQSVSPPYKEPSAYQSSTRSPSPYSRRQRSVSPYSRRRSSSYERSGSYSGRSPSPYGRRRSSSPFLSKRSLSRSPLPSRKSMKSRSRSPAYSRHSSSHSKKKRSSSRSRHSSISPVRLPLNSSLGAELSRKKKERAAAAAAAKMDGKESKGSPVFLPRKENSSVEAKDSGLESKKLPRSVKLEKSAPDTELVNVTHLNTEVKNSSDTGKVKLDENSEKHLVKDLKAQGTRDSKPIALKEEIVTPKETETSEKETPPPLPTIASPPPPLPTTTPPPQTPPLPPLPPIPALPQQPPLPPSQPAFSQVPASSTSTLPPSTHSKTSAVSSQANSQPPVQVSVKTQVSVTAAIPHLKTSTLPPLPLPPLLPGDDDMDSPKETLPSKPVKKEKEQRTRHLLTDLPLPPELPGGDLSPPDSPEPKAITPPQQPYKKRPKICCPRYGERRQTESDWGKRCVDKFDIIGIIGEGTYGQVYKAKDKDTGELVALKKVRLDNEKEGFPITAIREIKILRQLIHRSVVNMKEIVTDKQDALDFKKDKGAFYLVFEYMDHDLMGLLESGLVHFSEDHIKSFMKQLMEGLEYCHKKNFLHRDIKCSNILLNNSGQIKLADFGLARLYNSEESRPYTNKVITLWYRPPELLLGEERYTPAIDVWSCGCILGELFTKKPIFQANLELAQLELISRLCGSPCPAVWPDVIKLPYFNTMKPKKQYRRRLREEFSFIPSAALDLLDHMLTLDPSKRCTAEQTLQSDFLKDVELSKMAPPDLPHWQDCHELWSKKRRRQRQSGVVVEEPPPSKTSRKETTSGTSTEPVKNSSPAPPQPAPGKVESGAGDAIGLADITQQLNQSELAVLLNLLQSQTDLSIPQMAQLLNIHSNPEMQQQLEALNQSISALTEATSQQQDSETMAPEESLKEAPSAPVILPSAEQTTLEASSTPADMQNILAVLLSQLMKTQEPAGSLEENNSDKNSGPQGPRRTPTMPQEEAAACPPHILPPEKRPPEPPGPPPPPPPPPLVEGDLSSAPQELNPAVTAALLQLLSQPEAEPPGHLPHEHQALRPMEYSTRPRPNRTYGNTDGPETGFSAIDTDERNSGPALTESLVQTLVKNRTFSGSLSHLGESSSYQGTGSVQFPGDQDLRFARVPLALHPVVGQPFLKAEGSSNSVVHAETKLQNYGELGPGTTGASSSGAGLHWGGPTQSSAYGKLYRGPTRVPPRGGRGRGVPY
From the text: as §1
In addition to screening a selected set of new inhibitors in CDK12/13 enzyme assays using Kinomescan™ technology, we tested all new compounds in a mechanism of action assay, which detects inhibition of phosphorylation of serine 2 (pSer2) on the C-terminal repeat domain (CTD) of RNA pol II.

CDK13 = molecular target: T3, CDK13 (Homo sapiens, UniProt Q14004); assay: Competition binding assay, DiscoverX (Kinomescan), CDK13
T3 construct: purchased DiscoverX
From the text: as §1
In addition to screening a selected set of new inhibitors in CDK12/13 enzyme assays using Kinomescan™ technology, we tested all new compounds in a mechanism of action assay, which detects inhibition of phosphorylation of serine 2 (pSer2) on the C-terminal repeat domain (CTD) of RNA pol II. […] In order to confirm that CDK12/13 inhibition is driving cell death, we also plotted the growth inhibition pIC50's with pSer2 inhibition data. There was a good correlation when using the cell proliferation data from both U87 and MDA-MB-231 cell lines (FIGS. 5 and 6).

[5] = read-out: CK1δ IC50, read-out: CK1σ IC50

Row | Compound | CYP inhibition 1A2 (CYP 1A2) [% inh] | solubility [1] [µM] | CYP inhibition 2C9 (CYP 2C9) [% inh] | CYP inhibition 3A4 (CYP 3A4) [% inh] | CYP inhibition 2D6 (CYP 2D6) [% inh] | half-life [2] [min] | half-life [3] [min] | half-life [4] [min] | pIC50 (CK1δ; [5]) | pIC50 (CK1ε) | further results
1 | Fc1ccc2[nH]c(CNc3nc(N4CCOCC4)nc4c3ncn4-c3cscn3)nc2c1F [Compound 4, N-((4,5-difluoro-1H-benzo[d]imidazol-2-yl)methyl)-2-morpholino-9-(thiazol-4-yl)-9H-purin-6-amine] | 97 | 0.8 (≈ 0.376 µg/mL) | 89 | 89 | 57 | 9 | 16 | 6 |  |  | GI50 (U87 cell line): < 2 nM; GI50 (MDA-MB-231 cell line): < 2 nM
2 | Fc1cccc(-n2cnc3c(NCc4nc5c(F)c(F)ccc5[nH]4)nc(N4CCOCC4)nc32)c1 [SR-3029] |  |  |  |  |  |  |  |  |  |  | Selectivity in CDK panel (other CDKs (CDK panel)): good selectivity
3 | Fc1ccc2[nH]c(CNc3nc(N4CCOCC4)nc4c3ncn4-c3cncs3)nc2c1F [Compound 8, N-((4,5-difluoro-1H-benzo[d]imidazol-2-yl)methyl)-2-morpholino-9-(thiazol-5-yl)-9H-purin-6-amine] |  |  |  |  |  |  |  |  | 6.38 | 6.20 | 
4 | Cn1cc(-n2cnc3c(NCc4nc5c(F)c(F)ccc5[nH]4)nc(N4CCOCC4)nc32)cn1 [Compound 1, N-((4,5-difluoro-1H-benzo[d]imidazol-2-yl)methyl)-9-(1-methyl-1H-pyrazol-4-yl) morpholino-9H-purin-6-amine] | 10 | 6.1 (≈ 2.85 µg/mL) | 23 | 56 | −3 | 20 | 22 | 9 | 5.07 | 5.34 | AUC % Extrap (Mouse PK; IP 30 mg/kg): 0.1%; CI_obs (Mouse PK; IP 30 mg/kg): 13.4 mL/min/kg; AUC(0-t) (Mouse PK; in vivo, IP 30 mg/kg): 25400 ng·h/mL and 55 µM·h; half-life (Mouse PK; in vivo, IP 30 mg/kg, 10/10/80 DMSO/Tween-80/water): 179 min; AUC (Mouse PK; in vivo, IP 30 mg/kg): 25500 ng·h/mL; Cmax (Mouse PK; in vivo, IP 30 mg/kg, read-out: Cmax): 9330 ng/mL and 20 µM; Tmax (Mouse PK; in vivo, IP 30 mg/kg, read-out: Tmax): 1 h; pKd (CDK12): 7.85; pKd (CDK13): 8.30
5 | Fc1ccc2[nH]c(CNc3nc(N4CCOCC4)nc4c3ncn4-c3nccs3)nc2c1F [Compound 9, N-((4,5-difluoro-1H-benzo[d]imidazol-2-yl)methyl)-2-morpholino-9-(thiazol-2-yl)-9H-purin-6-amine] |  |  |  |  |  |  |  |  | 6.40 | 5.97 | 
6 | COc1cc2nc(CNc3nc(N4CCOCC4)nc4c3ncn4-c3cnn(C)c3)[nH]c2cc1Cl [Compound 10] |  |  |  |  |  |  |  |  |  |  | pIC50 (CK1δ; read-out: CK1σ IC50): 5.11
7 | Cn1cc(-n2cnc3c(NCc4nc5cc(F)c(F)cc5[nH]4)nc(N4CCOCC4)nc32)cn1 [Compound 2, N-((5,6-difluoro-1H-benzo[d]imidazol-2-yl)methyl)-9-(1-methyl-1H-pyrazol-4-yl) morpholino-9H-purin-6-amine] | 5 | 0.8 (≈ 0.373 µg/mL) | 23 | 55 | 2 | 18 | 39 | 11 | < 5.00 | 5.19 | 
8 | Cn1cc(-n2cnc3c(NCc4nc5cc(Cl)c(Cl)cc5[nH]4)nc(N4CCOC[C@@H]4CO)nc32)cn1 [Compound 6, (S)-(4-(6-(((5,6-dichloro-1H-benzo[d]imidazol-2-yl)methyl)amino)-9-(1-methyl-1H-pyrazol-4-yl)-9H-purin-2-yl)morpholin-3-yl)methanol] | 42 | 0.8 (≈ 0.424 µg/mL) | 69 | 77 | 42 | 19 | 21 | 13 |  |  | 
9 | Cc1cc(-n2cnc3c(NCc4nc5c(F)c(F)ccc5[nH]4)nc(N4CCOCC4)nc32)no1 [Compound 3, N-((4,5-difluoro-1H-benzo[d]imidazol-2-yl)methyl)-9-(5-methylisoxazol-3-yl)-2-morpholino-9H-purin-6-amine] | 5 | 3.6 (≈ 1.68 µg/mL) | 23 | 55 | 2 | 11 | 13 | 7 | 5.32 | 5.90 | pKd (CDK12): 7.66; pKd (CDK13): 8.40
10 | Cn1cc(-n2cnc3c(NCc4nc5cc(Cl)c(Cl)cc5[nH]4)nc(N4CCOC[C@H]4CO)nc32)cn1 [Compound 7, (R)-(4-(6-(((5,6-dichloro-1H-benzo[d]imidazol-2-yl)methyl)amino)-9-(1-methyl-1H-pyrazol-4-yl)-9H-purin-2-yl)morpholin-3-yl)methanol] | 39 | 0.7 (≈ 0.371 µg/mL) | 54 | 54 | 29 | 25 | 27 | 18 |  |  | AUC % Extrap (Mouse PK; IP 20 mg/kg): 1.0%; CI_obs (Mouse PK; IP 20 mg/kg): 61.6 mL/min/kg; Tmax (Mouse PK; IP 20 mg/kg): 1.00 h; T1/2 (Mouse PK; IP 20 mg/kg, 10/10/80 DMSO/Tween-80/water): 3.71 h; AUC (Mouse PK; in vivo, IP 20 mg/kg): 5530 ng·h/mL
